{"source": "patent US12421210B2", "about": "“Fused bicyclic heterocycles as therapeutic agents” (NEW YORK UNIVERSITY, priority 2018, dated 2025)", "data": [{"molecular_target": "human NAMPT enzyme (His-hNAMPT) (Homo sapiens (Human), UniProt P43490)", "sequence (P43490 whole entry)": "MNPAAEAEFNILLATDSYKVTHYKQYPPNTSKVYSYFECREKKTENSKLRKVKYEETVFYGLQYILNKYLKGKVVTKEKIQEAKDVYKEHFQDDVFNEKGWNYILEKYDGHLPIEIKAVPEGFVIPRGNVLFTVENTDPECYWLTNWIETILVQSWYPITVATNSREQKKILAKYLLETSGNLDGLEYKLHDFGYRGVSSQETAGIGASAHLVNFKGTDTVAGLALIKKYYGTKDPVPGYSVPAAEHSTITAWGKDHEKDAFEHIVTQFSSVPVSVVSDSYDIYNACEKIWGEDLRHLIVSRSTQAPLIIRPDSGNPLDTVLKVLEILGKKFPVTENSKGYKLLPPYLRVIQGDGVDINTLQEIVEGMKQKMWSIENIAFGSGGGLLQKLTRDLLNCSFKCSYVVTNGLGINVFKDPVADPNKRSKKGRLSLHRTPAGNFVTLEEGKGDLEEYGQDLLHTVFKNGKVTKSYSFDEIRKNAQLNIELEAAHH", "test": "NAMPT enzymatic inhibition assay (fluorescence, NADH product)", "assay_type": "biochemical", "details": "[BPS]; read-out: NAMPT IC50 (μM) [BPS]", "units": {"IC50": "µM"}, "values": [{"smiles": "CC(C)(C)NC(=O)N1C[C@@H]2[C@@H](CCNC(=O)/C=C/c3ccc(N)nc3)[C@@H]2C1", "note": "[Example 293, (1R,5S,6s)-6-(2-((E)-3-(6-aminopyridin-3-yl)acrylamido)ethyl)-N-(tert-butyl)-3-azabicyclo[3.1.0]hexane-3-carboxamide]", "IC50": "0.01 to 0.49"}, {"smiles": "O=C(NCC[C@@H]1[C@H]2CN(C(=O)C3CCOCC3)C[C@@H]12)c1cc2ccncc2o1", "note": "[Example 100, N-(2-((1R,5S,6s)-3-(tetrahydro-2H-pyran-4-carbonyl)-3-azabicyclo[3.1.0]hexan-6-yl)ethyl)furo[2,3-c]pyridine-2-carboxamide]", "IC50": "0.5 to 0.99"}, {"smiles": "O=C(NCC[C@@H]1[C@H]2CN(c3ncccn3)C[C@@H]12)c1cc2ccncc2o1", "note": "[Example 119, N-(2-((1R,5S,6s)-3-(pyrimidin-2-yl)-3-azabicyclo[3.1.0]hexan-6-yl)ethyl)furo[2,3-c]pyridine-2-carboxamide]", "IC50": "0.01 to 0.49"}, {"smiles": "CCN(CC)C(=O)N1C[C@@H]2[C@@H](CCNC(=O)c3cc4ccncc4o3)[C@@H]2C1", "note": "[Example 60, N-(2-((1R,5S,6s)-3-(diethylcarbamoyl)-3-azabicyclo[3.1.0]hexan-6-yl)ethyl)furo[2,3-c]pyridine-2-carboxamide]", "IC50": "0.01 to 0.49"}, {"smiles": "O=C(/C=C/c1cccnc1)NCC[C@@H]1[C@H]2CN(C(=O)c3ccccc3)C[C@@H]12", "note": "[Example 22, (E)-N-(2-((1R,5S,6s)-3-benzoyl-3-azabicyclo[3.1.0]hexan-6-yl)ethyl)-3-(pyridin-3-yl)acrylamide]", "IC50": "0.01 to 0.49"}, {"smiles": "Nc1ccc(/C=C/C(=O)NCC[C@@H]2[C@H]3CN(C(=O)CC4CCOCC4)C[C@@H]23)cn1", "note": "[Example 94, (E)-3-(6-aminopyridin-3-yl)-N-(2-((1R,5S,6s)-3-(2-(tetrahydro-2H-pyran-4-yl)acetyl)-3-azabicyclo[3.1.0]hexan-6-yl)ethyl)acrylamide]", "IC50": "0.01 to 0.49"}, {"smiles": "CN1CCC(OC(=O)N2C[C@@H]3[C@@H](CCNC(=O)/C=C/c4ccc(N)nc4)[C@@H]3C2)CC1", "note": "[Example 52, (1R,5S,6s)-(1-methylpiperidin)-4-yl 6-(2-((E)-3-(6-aminopyridin-3-yl)acrylamido)ethyl)-3-azabicyclo[3.1.0]hexane-3-carboxylate]", "IC50": "0.01 to 0.49"}, {"smiles": "CC1(OC(=O)N2C[C@@H]3[C@@H](CCNC(=O)/C=C/c4ccc(N)nc4)[C@@H]3C2)COC1", "note": "[Example 24, (1R,5S,6s)-3-methyloxetan-3-yl 6-(2-((E)-3-(6-aminopyridin-3-yl)acrylamido)ethyl)-3-azabicyclo[3.1.0]hexane-3-carboxylate]", "IC50": "0.01 to 0.49"}, {"smiles": "CC(C)(C)OC(=O)N1C[C@@H]2[C@@H](CCNC(=O)/C=C/c3ccc(N)nc3)[C@@H]2C1", "note": "[Example 4, (1R,5S,6s)-tert-butyl 6-(2-((E)-3-(6-aminopyridin-3-yl)acrylamido)ethyl)-3-azabicyclo[3.1.0]hexane-3-carboxylate]", "IC50": "0.01 to 0.49"}, {"smiles": "CC(C)(C)OC(=O)N1C[C@@H]2[C@@H](CNC(=O)c3cc4ccncc4o3)[C@@H]2C1", "note": "[Example 235, (1R,5S,6s)-tert-butyl 6-((furo[2,3-c]pyridine-2-carboxamido)methyl)-3-azabicyclo[3.1.0]hexane-3-carboxylate]", "IC50": "1 to 29"}, {"smiles": "CC(C)(C)OC(=O)N1C[C@@H]2[C@@H](CCNC(=O)C(C)(C)C)[C@@H]2C1", "note": "[Example 8, (1R,5S,6s)-tert-butyl 6-(2-pivalamidoethyl)-3-azabicyclo[3.1.0]hexane-3-carboxylate]", "IC50": "> 30"}, {"smiles": "O=C(NCC[C@@H]1[C@H]2CN(C(=O)c3ccc(F)cc3)C[C@@H]12)c1cnc2nccn2c1", "note": "[Example 107, N-(2-((1R,5S,6s)-3-(4-fluorobenzoyl)-3-azabicyclo[3.1.0]hexan-6-yl)ethyl)imidazo[1,2-a]pyrimidine-6-carboxamide]", "IC50": "0.01 to 0.49"}, {"smiles": "O=C(NCC[C@@H]1[C@H]2CN(C(=O)c3ccc(F)cc3)C[C@@H]12)c1ccc2nccn2c1", "note": "[Example 102, N-(2-((1R,5S,6s)-3-(4-fluorobenzoyl)-3-azabicyclo[3.1.0]hexan-6-yl)ethyl)imidazo[1,2-a]pyridine-6-carboxamide]", "IC50": "0.01 to 0.49"}, {"smiles": "CC1(OC(=O)N2C[C@@H]3[C@@H](CCNC(=O)c4ccc5ncsc5c4)[C@@H]3C2)COC1", "note": "[Example 44, (1R,5S,6s)-3-methyloxetan-3-yl 6-(2-(benzo[d]thiazole-6-carboxamido)ethyl)-3-azabicyclo[3.1.0]hexane-3-carboxylate]", "IC50": "0.01 to 0.49"}, {"smiles": "CC(C)(C)OC(=O)N1C[C@@H]2[C@@H](CCNC(=O)COc3cccnc3)[C@@H]2C1", "note": "[Example 2, (1R,5S,6s)-tert-butyl 6-(2-(2-(pyridin-3-yloxy)acetamido)ethyl)-3-azabicyclo[3.1.0]hexane-3-carboxylate]", "IC50": "0.01 to 0.49"}, {"smiles": "O=C(/C=C/c1cccnc1)NC[C@@H]1[C@H]2CN(C(=O)c3ccccc3)C[C@@H]12", "note": "[Example 237, (E)-N-(((1R,5S,6s)-3-benzoyl-3-azabicyclo[3.1.0]hexan-6-yl)methyl)-3-(pyridin-3-yl)acrylamide]", "IC50": "0.5 to 0.99"}, {"smiles": "O=C(O)c1cccc(C(=O)N2C[C@@H]3[C@@H](CCNC(=O)c4ccc5nccn5c4)[C@@H]3C2)c1", "note": "[Example 181, 3-((1R,5S,6s)-6-(2-(imidazo[1,2-a]pyridine-6-carboxamido)ethyl)-3-azabicyclo[3.1.0]hexane-3-carbonyl)benzoic acid]", "IC50": "1 to 29"}, {"smiles": "O=C(NCC[C@@H]1[C@H]2CN(C(=O)OC3CCOCC3)C[C@@H]12)c1cc2cnccc2[nH]1", "note": "[Example 83, (1R,5S,6s)-tetrahydro-2H-pyran-4-yl 6-(2-(1H-pyrrolo[3,2-c]pyridine-2-carboxamido)ethyl)-3-azabicyclo[3.1.0]hexane-3-carboxylate]", "IC50": "0.01 to 0.49"}]}, {"molecular_target": "human NAMPT enzyme (His-hNAMPT) (Homo sapiens (Human), UniProt P43490)", "test": "NAMPT enzymatic inhibition assay (fluorescence, NADH product)", "assay_type": "biochemical", "details": "[HDB]; read-out: NAMPT IC50 (μM) [HDB]", "units": {"IC50": "µM"}, "values": [{"smiles": "O=C(/C=C/c1cccnc1)NCC[C@@H]1[C@H]2CN(c3ccc(F)c(Cl)c3)C[C@@H]12", "note": "[Example 153, (E)-N-(2-((1R,5S,6s)-3-(3-chloro-4-fluorophenyl)-3-azabicyclo[3.1.0]hexan-6-yl)ethyl)-3-(pyridin-3-yl)acrylamide]", "IC50": "0.01 to 0.49"}, {"smiles": "O=C(/C=C/c1ccccn1)NCC[C@@H]1[C@H]2CN(c3nc(Cl)ncc3F)C[C@@H]12", "note": "[Example 209, (E)-N-(2-((1R,5S,6s)-3-(2-chloro-5-fluoropyrimidin-4-yl)-3-azabicyclo[3.1.0]hexan-6-yl)ethyl)-3-(pyridin-2-yl)acrylamide]", "IC50": "0.01 to 0.49"}, {"smiles": "O=C(/C=C/c1cccnc1)NCC[C@@H]1[C@H]2CN(CCc3ccc(F)cc3)C[C@@H]12", "note": "[Example 250, (E)-N-(2-((1R,5S,6s)-3-(4-fluorophenethyl)-3-azabicyclo[3.1.0]hexan-6-yl)ethyl)-3-(pyridin-3-yl)acrylamide]", "IC50": "0.01 to 0.49"}, {"smiles": "CN(C)c1ncc(F)c(N2C[C@@H]3[C@@H](CCNC(=O)/C=C/c4cccnc4)[C@@H]3C2)n1", "note": "[Example 304, (E)-N-(2-((1R,5S,6s)-3-(2-(dimethylamino)-5-fluoropyrimidin-4-yl)-3-azabicyclo[3.1.0]hexan-6-yl)ethyl)-3-(pyridin-3-yl)acrylamide]", "IC50": "< 0.01"}, {"smiles": "CCN(CC)C(=O)C(c1ccccc1)N1C[C@@H]2[C@@H](CCNC(=O)/C=C/c3cccnc3)[C@@H]2C1", "note": "(stereo partly drawn) [Example 318, (E)-N-(2-((1R,5S,6s)-3-(2-(diethylamino)-2-oxo-1-phenylethyl)-3-azabicyclo[3.1.0]hexan-6-yl)ethyl)-3-(pyridin-3-yl)acrylamide]", "IC50": "< 0.01"}, {"smiles": "CCOP(=O)(OCC)c1cccc(N2C[C@@H]3[C@@H](CCNC(=O)/C=C/c4cccnc4)[C@@H]3C2)c1", "note": "[Example 338, diethyl (3-((1R,5S,6s)-6-(2-((E)-3-(pyridin-3-yl)acrylamido)ethyl)-3-azabicyclo[3.1.0]hexan-3-yl)phenyl)phosphonate]", "IC50": "0.01 to 0.49"}, {"smiles": "CC(C)(C)c1cccc(N2C[C@@H]3[C@@H](CCNC(=O)/C=C/c4cccnc4)[C@@H]3C2)c1", "note": "[Example 155, (E)-N-(2-((1R,5S,6s)-3-(3-(tert-butyl)phenyl)-3-azabicyclo[3.1.0]hexan-6-yl)ethyl)-3-(pyridin-3-yl)acrylamide]", "IC50": "0.01 to 0.49"}, {"smiles": "O=C(/C=C/c1cccnc1)NCC[C@@H]1[C@H]2CN(c3ncc4cc(F)ccc4n3)C[C@@H]12", "note": "[Example 167, (E)-N-(2-((1R,5S,6s)-3-(6-fluoroquinazolin-2-yl)-3-azabicyclo[3.1.0]hexan-6-yl)ethyl)-3-(pyridin-3-yl)acrylamide]", "IC50": "0.01 to 0.49"}, {"smiles": "O=C(/C=C/c1cccnc1)NCC[C@@H]1[C@H]2CN(c3nc(-c4ccccc4)ncc3F)C[C@@H]12", "note": "[Example 287, (E)-N-(2-((1R,5S,6s)-3-(5-fluoro-2-phenylpyrimidin-4-yl)-3-azabicyclo[3.1.0]hexan-6-yl)ethyl)-3-(pyridin-3-yl)acrylamide]", "IC50": "< 0.01"}, {"smiles": "O=C(O)COc1ncc(F)c(N2C[C@@H]3[C@@H](CCNC(=O)/C=C/c4cccnc4)[C@@H]3C2)n1", "note": "[Example 282, 2-((5-fluoro-4-((1R,5S,6s)-6-(2-((E)-3-(pyridin-3-yl)acrylamido)ethyl)-3-azabicyclo[3.1.0]hexan-3-yl)pyrimidin-2-yl)oxy)acetic acid]", "IC50": "0.01 to 0.49"}, {"smiles": "O=C(NCC[C@H]1[C@@H]2CN(c3ccccc3)C(=O)[C@H]12)c1cc(-c2cccnc2)on1", "note": "(stereo in doubt) [Example 261, N-(2-((1R,5S,6S)-2-oxo-3-phenyl-3-azabicyclo[3.1.0]hexan-6-yl)ethyl)-5-(pyridin-3-yl)isoxazole-3-carboxamide/N-(2-((1S,5R,6R)-2-oxo-3-phenyl-3-azabicyclo[3.1.0]hexan-6-yl)ethyl)-5-(pyridin-3-yl)isoxazole-3-carboxamide]", "IC50": "0.01 to 0.49"}, {"smiles": "O=C(/C=C/c1cccnc1)NCC[C@@H]1[C@H]2CN(c3ncc(F)c(O)n3)C[C@@H]12", "note": "[Example 187, (E)-N-(2-((1R,5S,6s)-3-(5-fluoro-4-hydroxypyrimidin-2-yl)-3-azabicyclo[3.1.0]hexan-6-yl)ethyl)-3-(pyridin-3-yl)acrylamide]", "IC50": "0.01 to 0.49"}, {"smiles": "COc1ncc(F)c(N2C[C@@H]3[C@@H](CCNC(=O)/C=C/c4cnccc4F)[C@@H]3C2)n1", "note": "[Example 332, (E)-N-(2-((1R,5S,6s)-3-(5-fluoro-2-methoxypyrimidin-4-yl)-3-azabicyclo[3.1.0]hexan-6-yl)ethyl)-3-(4-fluoropyridin-3-yl)acrylamide]", "IC50": "< 0.01"}]}]}
